These results are taken from publication doi:10.1101/2025.11.04.686469, “Discovery of Host-Directed Small Molecules with Broad Anti-Leishmanial Efficacy” (bioRxiv, 2025).

The data set deals with THP-1 macrophages. Nature of the data set: Effect of compounds on host cell viability (MTT). The conditions noted are these: read-out: 24h LC50; THP1 macrophages, 24-hour incubation, MTT assay (Supplemental Table 2). Type of data set: cell-based. As for the experimental part: The cells were cultured at 37C, 5% CO2 in RPMI medium (ATCC) supplemented with 10% FBS, 1% Penicillin/Streptomycin and 0.05 mM of β-mercaptoethanol. Cells were used in experiments up to passage 10.
Effect of the compounds on THP-1 cell viability measured using thiazolyl blue tetrazolium bromide which measures cell metabolic activity (MTT). THP-1 cells were seeded in a 96 well plate (25,000 cells/well) overnight then differentiated with 150 nM phorbol 12-myristate 13-acetate (PMA) over 72 hours. Macrophages were then treated with compounds resuspended in RPMI media (1- 50 μM) for 24 hours. Media was replaced with thiazolyl blue tetrazolium bromide solubilized in RPMI media (0.5 mg/mL) and incubated at 37°C for 2 hours. The reduced formazan crystals were solubilized with isopropyl alcohol and the absorbance of the resulting solution was measured at 560 nm with a background subtraction at 670 nm. […] This process was repeated with a 72-hr incubation and extended concentration range (1 - 300 μM) for select compounds.
(In general: Tetrazolium assays rely on reduction of a dye to a coloured formazan, in cell work by metabolically active cells.)
`Nc1ccc(-n2cc(C(F)(F)F)nc2-c2ccc(Cl)cc2)cc1` [Compound 30]: the CC50 was over 50 µM.
As for `O=[N+]([O-])c1ccc(-n2nc(C(F)(F)F)cc2-c2ccc(-c3ccc(C(F)(F)F)cc3)cc2)cc1` [Compound 9], the CC50 is over 50 µM.
For the compound `FC(F)(F)c1cc(C2CC2)n(-c2ccc(Br)cc2)n1` [Compound 266], the CC50 is over 50 µM.
With `FC(F)(F)c1ccc(-c2ccc(-c3cc(C(F)(F)F)nn3-c3ccc(Br)cc3)cc2)cc1` [Compound 2], the CC50 is over 50 µM.
With `Fc1ccccc1CNC1CCN(c2ccc(-n3nc(C(F)(F)F)cc3-c3ccc(-c4ccc(C(F)(F)F)cc4)cc3)cc2)C1` (stereo not drawn) [Compound 21], the CC50 was over 50 µM.
Consider `Fc1cccc(COC2CCN(c3ccc(-n4nc(C(F)(F)F)cc4C4CCCCC4)cc3)C2)c1` (stereo not drawn) [Compound 415], for which the CC50 was over 50 µM.
For `CC(C)c1cc(C(F)(F)F)nn1-c1ccc(NC2CCN(C(=O)OC(C)(C)C)C2)cc1` (stereo not drawn) [Compound 286], the CC50 was over 50 µM.
As to `Nc1ccc(-n2cc(C(F)(F)F)nc2-c2ccc(-c3ccccc3)cc2)cc1` [Compound 33], the CC50 turned out to be 1.5 µM.
As for `FC(F)(F)c1cc(C2CCCCC2)n(-c2ccc(N3CCC(OCc4ccccc4)CC3)cc2)n1` [Compound 414], the CC50 was over 50 µM.
With `FC(F)(F)c1ccc(-c2ccc(-c3cc(C(F)(F)F)nn3-c3ccc(NC4CN(C(c5ccccc5)c5ccccc5)C4)cc3)cc2)cc1` [Compound 4], the CC50 was over 50 µM.
On to `FC(F)c1cc(-c2ccc(-c3ccc(C(F)(F)F)cc3)cc2)n(-c2ccc(Br)cc2)n1` [Compound 279], for which the CC50 is over 50 µM.
In the case of `C#Cc1ccc(-c2cc(C(F)(F)F)nn2-c2ccc(N3CCNCC3)cc2)cc1` [Compound 43], the CC50 is 0.5 µM.
In the case of `FC(F)(F)c1cc(C(F)(F)F)n(-c2ccc(Br)cc2)n1` [Compound 276] it was 32.2 µM.
In the case of `FC(F)(F)c1ccc(-c2ccc(-c3cc(C(F)(F)F)nn3-c3ccc(N4CCC(NCc5ccccc5Cl)C4)cc3)cc2)cc1` (stereo not drawn) [Compound 12] it was over 50 µM.
As for `FC(F)(F)c1c[nH]c(-c2ccc(-c3ccccc3)cc2)n1` [Compound 31], the CC50 is over 50 µM.
As to `FC(F)(F)c1cc(C2CCCCC2)n(-c2ccc(N3CCC(OCc4ccccc4)C3)cc2)n1` (stereo not drawn) [Compound 412], the CC50 is over 50 µM.
With `FC(F)(F)c1ccc(-c2ccc(-c3cc(C(F)(F)F)nn3-c3ccc(NC4CCN(Cc5ccc(-c6ccccc6)cc5)C4)cc3)cc2)cc1` (stereo not drawn) [Compound 36], the CC50 is over 50 µM.
On to `FC(F)(F)c1cc(C2CCCCC2)n(-c2ccc(OC3CCN(Cc4ccccc4)C3)cc2)n1` (stereo not drawn) [Compound 378], for which the CC50 is over 50 µM.
On to `CCCN(CCC)CCc1c[nH]c2ccccc12` [Compound 411], for which the CC50 is over 50 µM.
For `FC(F)(F)c1cn(-c2ccc(NC3CCNC3)cc2)c(-c2ccncc2)n1` (stereo not drawn) [Compound 333], the CC50 was over 50 µM.
For `CC(=O)NCCN1CCC(Oc2ccc(-n3nc(C(F)(F)F)cc3C3CCCCC3)cc2)CC1` [Compound 417], the CC50 was 24.4 µM.
In the case of `COc1ccc(-n2nc(C(F)(F)F)cc2-c2ccc(-c3ccc(C(F)(F)F)cc3)cc2)cc1` [Compound 26], the CC50 turned out to be 5.8 µM.
As for `CC(C)(C)OC(=O)N1CCC(Nc2ccc(-n3nc(C(F)(F)F)cc3-c3ccco3)cc2)C1` (stereo not drawn) [Compound 269], the figure is over 50 µM; as for `CCc1cc(-c2ccc(-c3ccc(C(F)(F)F)cc3)cc2)n(-c2ccc(Br)cc2)n1` [Compound 280], over 50 µM; as for `CC(C)(C)OC(=O)N1CCC(Nc2ccc(-n3nc(C(F)(F)F)cc3-c3ccc(-c4ccc(C(F)(F)F)cc4)cc3)cc2)C1` (stereo not drawn) [Compound 15], over 50 µM.
In the case of `FC(F)(F)c1ccc(-c2ccc(-c3cc(C(F)(F)F)nn3-c3ccc(N4CCC(NCc5ccc6ccccc6c5)C4)cc3)cc2)cc1` (stereo not drawn) [Compound 17], the CC50 was over 50 µM.
`CCOC(=O)CNc1ccc(-n2cc(C(F)(F)F)nc2-c2ccc(C(F)(F)F)cc2)cc1` [Compound 403]: the CC50 was over 50 µM.
As for `FC(F)(F)c1cc(-c2ccc(-c3ccc(S(F)(F)(F)(F)F)cc3)cc2)n(-c2ccc(N3CCNCC3)cc2)n1` [Compound 46], the CC50 came to 10 µM.
As for `Cc1ccccc1CNC1CN(c2ccc(-n3nc(C(F)(F)F)cc3-c3ccc(-c4ccc(C(F)(F)F)cc4)cc3)cc2)C1` [Compound 48], the figure is over 50 µM; as for `O=C(OCc1ccccc1)N1CCC(Nc2ccc(-n3nc(C(F)(F)F)cc3-c3ccc(-c4ccc(C(F)(F)F)cc4)cc3)cc2)C1` (stereo not drawn) [Compound 6], over 50 µM.
For `NCC(=O)Nc1ccc(-n2cc(C(F)(F)F)nc2-c2ccc(OC(F)(F)F)cc2)cc1` [Compound 299], the CC50 is 31.6 µM.
With `NCC(=O)Nc1ccc(-n2ccnc2-c2ccc(C(F)(F)F)cc2)cc1` [Compound 406], the CC50 was over 50 µM.
As for `Fc1cccc(CN2CCC(Nc3ccc(-n4nc(C(F)(F)F)cc4C4CCCCC4)cc3)CC2)c1` [Compound 322], the figure is over 50 µM; as for `O=C(CNCc1cccc(F)c1)Nc1ccc(-n2nc(C(F)(F)F)cc2C2CCCCC2)cc1` [Compound 352], 29.3 µM.
Consider `CC(C)(C)OC(=O)NCC(=O)Nc1ccc(-n2nc(C(F)(F)F)cc2C2CCCCC2)cc1` [Compound 340], for which the CC50 is over 50 µM.
For `Cc1cc(C(F)(F)F)n(-c2ccc(Br)cc2)n1` [Compound 274], the CC50 was over 50 µM.
In the case of `NC(=O)CN1c2ccccc2C2CCCC21` (stereo not drawn) [Compound 320], the CC50 was over 50 µM.
As for `O=[N+]([O-])c1ccc(-n2nc(C(F)(F)F)cc2-c2ccc(Br)cc2)cc1` [Compound 37], the figure is over 50 µM; as for `CC(C)(C)OC(=O)N1CCN(c2ccc(-n3nc(C(F)(F)F)cc3-c3ccc(C#CC(F)(F)F)cc3)cc2)CC1` [Compound 47], over 50 µM.
As to `Oc1ccc(-n2nc(C(F)(F)F)cc2-c2ccc(-c3ccc(C(F)(F)F)cc3)cc2)cc1` [Compound 27], the CC50 is over 50 µM.
As for `Nc1ccc(-n2nc(C(F)(F)F)cc2-c2ccc(Br)cc2)cc1` [Compound 40], the CC50 was over 50 µM.
Take `Fc1cccc([C@@H]2CCCN2)c1` [Compound 278]: the CC50 was over 50 µM.
As to `OCCn1nc(C(F)(F)F)cc1-c1ccc(C(F)(F)F)cc1` [Compound 293], the CC50 was over 50 µM.
Take `CC(=O)NCCCOc1ccc(CN2CCC(Oc3ccc(-n4nc(C(F)(F)F)cc4C4CCCCC4)cc3)CC2)cc1` [Compound 430]: the CC50 was determined as 16.5 µM.
In the case of `CCCCNc1ccc(-n2nc(C(F)(F)F)cc2-c2ccc(-c3ccc(C(F)(F)F)cc3)cc2)cc1` [Compound 57] it was over 50 µM; in that of `CCCCCCNc1ccc(-n2nc(C(F)(F)F)cc2-c2ccc(-c3ccc(C(F)(F)F)cc3)cc2)cc1` [Compound 60], over 50 µM.
In the case of `O=[N+]([O-])c1ccc(-n2nc(C(F)(F)F)cc2-c2ccc(C#CC3CC3)cc2)cc1` [Compound 39] it was over 50 µM.
`Oc1ccc(CN2CCC(Oc3ccc(-n4nc(C(F)(F)F)cc4C4CCCCC4)cc3)CC2)cc1` [Compound 374]: the CC50 was determined as 8.2 µM.
In the case of `NCCNC1CCN(c2ccc(-n3nc(C(F)(F)F)cc3C3CCCCC3)cc2)CC1` [Compound 418], the CC50 came to 12.6 µM.
`FC(F)(F)c1ccc(-c2ccc(-c3cc(C(F)(F)F)nn3-c3ccc(N4CCC(NCc5ccccc5)C4)cc3)cc2)cc1` (stereo not drawn) [Compound 16]: the CC50 was over 50 µM.
In the case of `N#Cc1ccc(CN2CCC(Nc3ccc(-n4nc(C(F)(F)F)cc4C4CCCCC4)cc3)CC2)cc1` [Compound 389] it was over 50 µM.
With `COc1ccc(-n2nc(C(F)(F)F)cc2C2CCCCC2)cc1` [Compound 363], the CC50 was over 50 µM.
Regarding `CC(C)c1cc(C(F)(F)F)nn1-c1ccc(Br)cc1` [Compound 277], the CC50 is over 50 µM.
On to `FC(F)(F)c1ccc(-c2cc(C(F)(F)F)nn2CCNC2CCN(Cc3ccccc3)C2)cc1` (stereo not drawn) [Compound 294], for which the CC50 stood at 28.2 µM.
Consider `N#Cc1ccc(-n2cc(C(F)(F)F)nc2-c2ccc(Br)cc2)c(F)c1` [Compound 291], for which the CC50 was over 50 µM.
With `FC(F)(F)c1ccc(-c2nc(C(F)(F)F)cn2CC2CCNC2)cc1` (stereo not drawn) [Compound 292], the CC50 is over 50 µM.
Consider `CCc1cc(C(F)(F)F)nn1-c1ccc(NC2CCN(C(=O)OC(C)(C)C)C2)cc1` (stereo not drawn) [Compound 317], for which the CC50 is over 50 µM.
As to `O=[N+]([O-])c1ccc(-n2cc(C(F)(F)F)nc2-c2ccc(-c3ccccc3)cc2)cc1` [Compound 32], the CC50 was 6.3 µM.
For `CC(C)(C)OC(=O)N1CCC(Nc2ccc(-n3nc(C(F)(F)F)cc3-c3ccccc3C(F)(F)F)cc2)C1` (stereo not drawn) [Compound 259], the CC50 turned out to be 23.6 µM.
As for `CC(C)(C)OC(=O)NC1CN(c2ccc(-n3nc(C(F)(F)F)cc3-c3ccc(-c4ccc(C(F)(F)F)cc4)cc3)cc2)C1` [Compound 22], the CC50 is over 50 µM.
Consider `N#Cc1ccc(COC2CCN(c3ccc(-n4nc(C(F)(F)F)cc4C4CCCCC4)cc3)C2)cc1` (stereo not drawn) [Compound 413], for which the CC50 was over 50 µM.
Turning to `CC(C)(C)OC(=O)N1CCC(Nc2ccc(-n3nc(C(F)(F)F)cc3C(F)(F)F)cc2)C1` (stereo not drawn) [Compound 283], the CC50 was over 50 µM.
Turning to `CC(C)C#Cc1ccc(-c2cc(C(F)(F)F)nn2-c2ccc(N3CCC(NCc4ccc(O)cc4)C3)cc2)cc1` (stereo not drawn) [Compound 101], the CC50 amounted to 0.5 µM.
For the compound `O=[N+]([O-])c1ccc(-n2nc(C3CCCCC3)cc2C(F)(F)F)cc1` [Compound 335], the CC50 is over 50 µM.
For the compound `NCC(=O)Nc1ccc(-n2cc(C(F)(F)F)nc2C2CCCCC2)cc1` [Compound 327], the CC50 is over 50 µM.
Take `CC(C)(C)c1nc(C(F)(F)F)cn1-c1ccc(Br)cc1` [Compound 329]: the CC50 is over 50 µM.
